Laboratory results taken from ChEMBL document CHEMBL1201862, “PubChem BioAssay data set” (2004).
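Cultured in 96-well plates, cells were exposed to test compound for 48 hours across five concentrations. At the GI50, growth is halved.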 Active and inactive are the calls of the source. Rule as the data show it: active = GI50 up to about 1.1 µM and inactive = higher. Residues, ends and D or L forms follow the SMILES beside them. *: point of attachment. Bn = c1ccc(C*)cc1

Key:
Assay in all cases: inhibition of tumour cell growth, NCI panel, 48 h
[1] = system: 786-0
[2] = system: DU-145
[3] = system: HCT-15
[4] = system: Hs-578T
[5] = system: LOX IMVI
[6] = system: M14
[7] = system: MCF7
[8] = system: Malme-3M
[9] = system: NCI-H226
[10] = system: NCI-H522
[11] = system: OVCAR-5
[12] = system: SK-MEL-2
[13] = system: SK-OV-3
[14] = system: SNB-19
[15] = system: SNB-75
[16] = system: SW-620
[17] = system: TK-10
[18] = system: CCRF-CEM
[19] = system: HCC 2998
[20] = system: SR

| SMILES | GI50 [1] | GI50 [2] | GI50 [3] | GI50 [4] | GI50 [5] | GI50 [6] | GI50 [7] | GI50 [8] | GI50 [9] | GI50 [10] | GI50 [11] | GI50 [12] | GI50 [13] | GI50 [14] | GI50 [15] | GI50 [16] | GI50 [17] | GI50 [18] | GI50 [19] | GI50 [20] |
| --- | --- | --- | --- | --- | --- | --- | --- | --- | --- | --- | --- | --- | --- | --- | --- | --- | --- | --- | --- | --- |
| CCCC1c2c(ccc3ccccc23)Oc2ccc3ccccc3c21 | > 100 µM (inactive) | 84.3 µM (inactive) | 31.6 µM | > 100 µM (inactive) | 32.5 µM (inactive) | 74 µM (inactive) | 15.5 µM (inactive) | 57.3 µM (inactive) | 60.3 µM (inactive) | 25.5 µM (inactive) | 54.1 µM (inactive) | 20.3 µM (inactive) | > 100 µM (inactive) | > 100 µM (inactive) | > 100 µM (inactive) | 82.4 µM (inactive) | 35.7 µM (inactive) |  |  |  |
| N#Cc1c(SCc2ccccc2)nc(-c2ccccc2)[nH]c1=S | 22.3 µM (inactive) | 42 µM (inactive) | 19.8 µM | 32.1 µM (inactive) | 30 µM (inactive) | 29.9 µM (inactive) | 26.1 µM (inactive) | 37.2 µM (inactive) | 26.5 µM (inactive) |  | 25.8 µM (inactive) | 16.7 µM (inactive) | 23.4 µM (inactive) | 29.9 µM (inactive) | 19.1 µM (inactive) | 25.6 µM (inactive) | 32.7 µM (inactive) | 34.3 µM (inactive) | 19.3 µM (inactive) |  |
| CCN(C(=S)N[C@@H](Cc1ccccc1)C(=O)N[C@@H](CC(C)C)C(=O)OC)c1ccccc1 | > 100 µM (inactive) | > 100 µM (inactive) | 49 µM |  | > 100 µM (inactive) | > 100 µM (inactive) | 34 µM (inactive) | > 100 µM (inactive) | > 100 µM (inactive) | 55.6 µM (inactive) | > 100 µM (inactive) | > 100 µM (inactive) | > 100 µM (inactive) | 49.2 µM (inactive) | > 100 µM (inactive) | 50.6 µM (inactive) | > 100 µM (inactive) | 33.5 µM (inactive) | > 100 µM (inactive) | 24 µM (inactive) |
| Cc1ccc(/C=C/C(=N/NC(=O)N/N=C(/C=C/c2ccc(C)cc2)C(C)C)C(C)C)cc1 | > 10 µM (inactive) | > 10 µM (inactive) | > 10 µM |  |  | > 10 µM (inactive) | > 10 µM (inactive) | > 10 µM (inactive) | > 10 µM (inactive) | 9.12 µM (inactive) | > 10 µM (inactive) | > 10 µM (inactive) |  | > 10 µM (inactive) |  | > 10 µM (inactive) | > 10 µM (inactive) | > 10 µM (inactive) | > 10 µM (inactive) | > 10 µM (inactive) |
| O=C(NNc1cn[nH]c(=O)c1Cl)/C(=C/c1ccc2c(c1)OCO2)NC(=O)c1ccccc1 | 38.5 µM (inactive) | 92 µM (inactive) | 31.7 µM |  | 30.9 µM (inactive) | 61.8 µM (inactive) | 41.5 µM (inactive) |  | 21.9 µM (inactive) |  | > 100 µM (inactive) | 51.9 µM (inactive) | > 100 µM (inactive) | 76.2 µM (inactive) | 24.9 µM (inactive) | 41.2 µM (inactive) | 34 µM (inactive) |  | 41.3 µM (inactive) |  |
| CNC(=O)CCNC(=O)CCC(=O)OC | > 100 µM (inactive) | > 100 µM (inactive) |  |  |  | > 100 µM (inactive) | > 100 µM (inactive) |  |  |  | > 100 µM (inactive) | > 100 µM (inactive) | > 100 µM (inactive) | > 100 µM (inactive) |  | > 100 µM (inactive) | > 100 µM (inactive) |  |  |  |
| OC1=C2c3ccccc3NC2Oc2cc(F)ccc21 (stereo not drawn) | 16 µM (inactive) | 18.5 µM (inactive) | 15.8 µM | 34.7 µM (inactive) | 16.4 µM (inactive) | 17.3 µM (inactive) | 24.9 µM (inactive) | 20.4 µM (inactive) | 22.4 µM (inactive) | 17.7 µM (inactive) | 17.9 µM (inactive) | 19.7 µM (inactive) | 12.7 µM (inactive) | 20.3 µM (inactive) |  | 19.6 µM (inactive) | 25.1 µM (inactive) | 2.22 µM (inactive) | 17.9 µM (inactive) |  |
| O=C(O)Cn1nnc2c(=O)[nH][nH]c(=O)c21 | > 100 µM (inactive) | > 100 µM (inactive) | > 100 µM |  | > 100 µM (inactive) | > 100 µM (inactive) | > 100 µM (inactive) | > 100 µM (inactive) |  |  | > 100 µM (inactive) | > 100 µM (inactive) |  | > 100 µM (inactive) |  |  | > 100 µM (inactive) | > 100 µM (inactive) | > 100 µM (inactive) | > 100 µM (inactive) |
| Nc1nc(N)c(C2=CCN(Cc3ccccc3)CC2)c(=O)[nH]1 | > 100 µM (inactive) | > 100 µM (inactive) | > 100 µM | > 100 µM (inactive) |  | > 100 µM (inactive) | > 100 µM (inactive) | > 100 µM (inactive) | > 100 µM (inactive) | > 100 µM (inactive) | > 100 µM (inactive) | > 100 µM (inactive) | > 100 µM (inactive) | > 100 µM (inactive) | > 100 µM (inactive) | > 100 µM (inactive) |  | > 100 µM (inactive) |  |  |
| O=c1oc2ccc3ccccc3c2cc1-c1cn2ccccc2n1 | 37.2 µM (inactive) | > 100 µM (inactive) | > 100 µM | 35.6 µM (inactive) | 91.8 µM (inactive) | > 100 µM (inactive) |  |  | > 100 µM (inactive) | 26.3 µM (inactive) |  | > 100 µM (inactive) | 39.4 µM (inactive) |  | > 100 µM (inactive) | > 100 µM (inactive) | 67.8 µM (inactive) | > 100 µM (inactive) | > 100 µM (inactive) | > 100 µM (inactive) |
| Clc1ccc(Nc2nnc(CNc3ccc(-c4nnc(Nc5ccc(Cl)cc5)s4)cc3)s2)cc1 | 24.2 µM (inactive) | 22.5 µM (inactive) | 25.1 µM |  |  | 22.8 µM (inactive) | 17.9 µM (inactive) | 52.5 µM (inactive) | 34.9 µM (inactive) | 12.8 µM (inactive) | 23.6 µM (inactive) | 11.7 µM (inactive) | 47.3 µM (inactive) | 30.1 µM (inactive) | > 100 µM (inactive) | 28.4 µM (inactive) | 46.3 µM (inactive) |  | 13.4 µM (inactive) |  |
| CN(C)C1(N(C)C)Oc2c(c(=O)n(C)c(=O)n2C)C(c2ccc(F)cc2)C1(F)F (stereo not drawn) | > 100 µM (inactive) | > 100 µM (inactive) | > 100 µM |  | > 100 µM (inactive) | > 100 µM (inactive) | > 100 µM (inactive) |  | > 100 µM (inactive) |  | > 100 µM (inactive) | > 100 µM (inactive) | > 100 µM (inactive) | > 100 µM (inactive) | > 100 µM (inactive) | > 100 µM (inactive) | > 100 µM (inactive) | > 100 µM (inactive) | > 100 µM (inactive) |  |
| COc1cccc(NC(=O)c2c(SC)c(C#N)c(=O)n(N)c2N)c1 | 28.6 µM (inactive) |  | 66.2 µM | 41.1 µM (inactive) | 88.1 µM (inactive) | 30.6 µM (inactive) | > 100 µM (inactive) | > 100 µM (inactive) | > 100 µM (inactive) | 42.3 µM (inactive) | 31.7 µM (inactive) | > 100 µM (inactive) | 44.5 µM (inactive) | 4.52 µM (inactive) | 1.46 µM (inactive) | 51.2 µM (inactive) | > 100 µM (inactive) | 35.2 µM (inactive) | > 100 µM (inactive) |  |
| CC(C)CC(NC(=O)C(CSc1ccc([N+](=O)[O-])cc1)Cc1ccccc1)C(=O)Nc1ccccc1 (stereo not drawn) | 44.7 µM (inactive) | 89.3 µM (inactive) | > 100 µM |  | > 100 µM (inactive) | 99.8 µM (inactive) | 63.7 µM (inactive) | 27 µM (inactive) |  | 64.9 µM (inactive) | > 100 µM (inactive) | > 100 µM (inactive) | > 100 µM (inactive) | 45.5 µM (inactive) | 26.4 µM (inactive) | > 100 µM (inactive) | 58.2 µM (inactive) | 33.1 µM (inactive) | > 100 µM (inactive) | > 100 µM (inactive) |
| COC(=O)C(CC(C)C)NC(=O)C(N)Cc1ccc(OCc2ccccc2)cc1 (stereo not drawn) (H-Tyr(Bn)-Leu-OMe; configuration not given here) | > 10 µM (inactive) | > 10 µM (inactive) | > 10 µM | > 10 µM (inactive) | > 10 µM (inactive) | > 10 µM (inactive) |  | 2.9 µM (inactive) | > 10 µM (inactive) | > 10 µM (inactive) | > 10 µM (inactive) | > 10 µM (inactive) | > 10 µM (inactive) | > 10 µM (inactive) | > 10 µM (inactive) | > 10 µM (inactive) | > 10 µM (inactive) | > 10 µM (inactive) | > 10 µM (inactive) | 7.64 µM (inactive) |
| C=C1C(=O)O[C@@H]2[C@H]1CC[C@H](C)[C@]1(O)CCC(=O)[C@@]21C [CORONOPILIN] | > 10 µM (inactive) |  | > 10 µM | > 10 µM (inactive) | > 10 µM (inactive) |  | > 10 µM (inactive) | > 10 µM (inactive) | > 10 µM (inactive) |  |  | > 10 µM (inactive) | > 10 µM (inactive) | > 10 µM (inactive) | > 10 µM (inactive) | > 10 µM (inactive) | > 10 µM (inactive) | 4.69 µM (inactive) | > 10 µM (inactive) | 5.73 µM (inactive) |
| CC(=O)O[C@@]12CO[C@@H]1C[C@H](O)[C@@]1(C)C(=O)[C@H](O)C3=C(C)[C@@H](OC(=O)[C@H](O)[C@@H](NC(=O)OC(C)(C)C)c4ccccc4)C[C@@](O)([C@@H](OC(=O)c4ccccc4)[C@H]21)C3(C)C [DOCETAXEL] | < 0.01 µM (active) |  | 0.0493 µM | 0.00104 µM (active) | < 0.0585 µM (active) |  | 0.000409 µM (active) | > 10 µM (inactive) |  | < 0.01 µM (active) | < 0.01 µM (active) |  | 0.0132 µM (active) | 43.2 µM (inactive) | < 0.01 µM (active) | < 0.01 µM (active) | 0.225 µM (active) | < 0.01 µM (active) | < 0.01 µM (active) | < 0.01 µM (active) |
